Measurements reported in patent publication US20240140895A1, “NOVEL AROMATIC MOLECULES” (XENIOPRO GmbH, priority 2018, published 2024).

Key:
Format in all cases: cell-based
[1] = test system: NB-4 cells (human acute promyelocytic leukemia cells); assay: Proliferation assay (alamarBlue) with NB-4 cells; conditions: Homo sapiens, Table 32, compound at 20 μM, read-out: Activity Range (AVEw, weighted arithmetic mean of normalized fluorescence intensity, DMSO = 1.0)
Excerpt: (§1) The antiproliferative activities of compounds falling under formula (Ia), (Tb) and (Ic), respectively, were investigated on cells or cell lines originating from a disorder of the haematopoietic system, including the myeloid cell compartment and the lymphoid cell compartment (T-cells and B-cells), the neuroendocrine system, the cervix, the breast, the ovaries, the lung, the gastrointestinal tract, and the mucosal epithelium, as well as from the skin epithelium and from the muscle. To this end, HL-60 cells, NB-4 cells, HH cells, RPMI-8402 cells, TANOUE cells, TT cells, HeLa cells, MDA-MB-231 cells, FU-OV-1 cells, LOU-NH91 cells, 23132/87 cells, CAL-27 cells, BHY cells, SCC-25 cells, A-431 cells, human primary epidermal keratinocytes (HPEK), and C2C12 cells were seeded into 96-well plates suitable for fluorescence assays (CORNING #3598) at following initial cell numbers: 1000 cells per well for HL-60; 1000 cells per well for NB-4; 5000 cells per well for HH; 5000 cells per well for RPMI-8402; 1500 cells per well for TANOUE; 9000 cells per well for TT; 2000 cells per well for HeLa; 3000 cells per well for MDA-MB-231; 3000 cells per well for FU-OV-1; 4000 cells per well for LOU-NH91; 2000 cells per well for 23132/87; 2000 cells per well for CAL-27; 1500 cells per well for BHY; 1500 cells per well for SCC-25; 700 cells per well for A-431; 1000 cells per well for HPEK; 500 cells per well for C2-C12. The cells were treated with compounds at indicated final concentrations (diluted from the 1000× stock-solutions in DMSO to a final DMSO concentration of 0.1% v/v in H2O (Water For Injection, WFI, Fisherscientific #10378939)) or with the empty carrier DMSO at 0.1% v/v as control for 5 days. At day 5 after starting the treatments the cells were subjected to the alamarBlue® Proliferation Assay (Bio-Rad Serotec GmbH, BUF012B) according to the protocol of the manufacturer. The readout was taken with a multi-well plate-reader in the fluorescence mode with applying a filter for excitation at 560 nm (band width 10 nm) and for emission at 590 nm (band width 10 nm). Control treatments for growth inhibition with commercial compounds such as Methotrexate (MTREX) and Resveratrol (RES) were included on every plate. Some of the test compounds of the present invention were obtained and applied as their salts. According cases are indicated in the column “Specification” in Table 30 to Table 62 and by their sum formula in Table 63.
(§2) The assays were performed in duplicate or more replicates of independent single experiments each containing a six-fold replicate for every condition. For every individual plate, the measured fluorescence intensity values of the conditions with compound treatment were normalized against the corresponding equally weighted arithmetic mean of the fluorescence intensity values of the six DMSO treated control wells in order to obtain the relative values to a baseline level of 1.0.
(§3) Two independent outlier analyses were performed according to the methods by Peirce and Chauvenet (Ross, Journal of Engineering Technology 2003, 1-12). Outliers confirmed by at least one of the methods were excluded from the calculations but not more than one value out of six per compound within a single experiment. The weighted arithmetic mean (here abbreviated as AVEw) for each compound was calculated from the normalized values over all independent replicates of the single experiments comprising the six replicates each. The corresponding standard deviation for the weighted arithmetic mean was calculated according to the method described by Bronstein et al. (Bronstein, Semendjajew, Musiol, Muhlig, Taschenbuch der Mathematik, 5th edition 2001 (German), publisher: Verlag Harri Deutsch, Frankfurt am Main and Thun) and was combined with the Gauβ′ error propagation associated with the performed calculation for the normalization. The resulting standard deviation is herein referred to as “combined standard deviation”. […]

[2] = test system: TANOUE cells (human B cell leukemia cells); assay: Proliferation assay (alamarBlue) with TANOUE cells; conditions: Homo sapiens, B-cell, read-out: Activity Range: weighted arithmetic mean (AVEw) of normalized fluorescence intensity relative to DMSO basis level 1.0
Excerpt: as §1, §2, §3

[3] = test system: A-431 cells (human epidermoid squamous cell carcinoma cells); assay: Proliferation assay (alamarBlue) with A-431 cells; conditions: Homo sapiens, 20 μM, read-out: Activity Range: weighted arithmetic mean (AVEw) of normalized fluorescence intensity relative to DMSO basis level 1.0
Excerpt: as §1, §2, §3

[4] = test system: 23132/87 cells (human gastric adenocarcinoma cells); assay: Proliferation assay (alamarBlue) with 23132/87 cells; conditions: read-out: Activity Range: weighted arithmetic mean (AVEw) of normalized fluorescence intensity relative to DMSO basis level 1.0
Excerpt: as §1, §2, §3

[5] = test system: MDA-MB-231 cells (human breast carcinoma cells); assay: Proliferation assay (alamarBlue) with MDA-MB-231 cells; conditions: Homo sapiens, read-out: Activity Range: weighted arithmetic mean (AVEw) of normalized fluorescence intensity relative to DMSO basis level 1.0
Excerpt: as §1, §2, §3

[6] = test system: SCC-25 cells (human tongue squamous cell carcinoma cells); assay: Proliferation assay (alamarBlue) with SCC-25 cells; conditions: Homo sapiens, read-out: Activity Range: weighted arithmetic mean (AVEw) of normalized fluorescence intensity relative to DMSO basis level 1.0
Excerpt: as §1, §2, §3

[7] = test system: C2C12 cells (murine myoblast cells); assay: Proliferation assay (alamarBlue) with C2C12 cells; conditions: Mus musculus, compound at 20 μM, read-out: Activity Range: weighted arithmetic mean (AVEw) of normalized fluorescence intensity, relative to DMSO basis level 1.0
Excerpt: as §1, §2, §3

[8] = test system: HPEKp cells (human epidermal keratinocyte progenitors, pooled); assay: Proliferation assay (alamarBlue) with HPEKp cells; conditions: compound at 10 μM, read-out: Activity Range: weighted arithmetic mean (AVEw) of normalized fluorescence intensity, relative to DMSO basis level 1.0
Excerpt: as §1, §2, §3

[9] = test system: HH cells (human cutaneous T-cell lymphoma cells); assay: Proliferation assay (alamarBlue) with HH cells; conditions: Table 34, compound at 20 μM, read-out: Activity Range (AVEw, weighted arithmetic mean of normalized fluorescence intensity, DMSO = 1.0)
Excerpt: as §1, §2, §3

[10] = test system: HL-60 cells (human acute myeloid leukemia cells); assay: Proliferation assay (alamarBlue) with HL-60 cells; conditions: Homo sapiens, Table 30, compound at 20 μM, read-out: Activity Range (AVEw, weighted arithmetic mean of normalized fluorescence intensity, DMSO = 1.0)
Excerpt: as §1, §2, §3

[11] = test system: CAL-27 cells (human tongue squamous cell carcinoma cells); assay: Proliferation assay (alamarBlue) with CAL-27 cells; conditions: read-out: Activity Range: weighted arithmetic mean (AVEw) of normalized fluorescence intensity relative to DMSO basis level 1.0
Excerpt: as §1, §2, §3

[12] = test system: RPMI-8402 cells (human T cell acute lymphoblastic leukemia cells); assay: Proliferation assay (alamarBlue) with RPMI-8402 cells; conditions: Homo sapiens, read-out: Activity Range: weighted arithmetic mean (AVEw) of normalized fluorescence intensity relative to DMSO basis level 1.0
Excerpt: as §1, §2, §3

[13] = test system: BHY cells (human oral squamous cell carcinoma cells); assay: Proliferation assay (alamarBlue) with BHY cells; conditions: read-out: Activity Range: weighted arithmetic mean (AVEw) of normalized fluorescence intensity relative to DMSO basis level 1.0
Excerpt: as §1, §2, §3

Row | Structure (SMILES) | activity at 20 µM [1] [%] | activity at 20 µM [2] [%] | activity at 20 µM [3] [%] | activity at 20 µM [4] [%] | activity at 20 µM [5] [%] | activity at 20 µM [6] [%] | activity at 20 µM [7] [%] | activity at 10 µM [8] [%] | activity at 20 µM [9] [%] | activity at 20 µM [10] [%] | activity at 20 µM [11] [%] | activity at 20 µM [12] [%] | activity at 20 µM [13] [%]
1 | CCOC(=O)c1ccc(Oc2ccc(C3CCN(C)CC3)cc2)cc1 [XPA-0064, ethyl 4-(4-(1-methylpiperidin-4-yl)phenoxy)benzoate] | 20 to 40 | 0 to 20 | 0 to 20 | 70 to 80 | 40 to 60 | 0 to 20 | 0 to 20 | 0 to 20 | 40 to 60 | 70 to 80 | 0 to 20 | 0 to 20 | 0 to 20
2 | CCOC(=O)c1ccc(Oc2ccc(C3CCCCC3)cc2C2CC2)cc1 [XPA-1295, ethyl 4-(4-cyclohexyl-2-cyclopropylphenoxy)benzoate] |  |  |  |  |  |  |  | 70 to 80 |  |  |  |  | 
3 | C=Cc1cc(C2CCCCC2)ccc1Oc1ccc(C(=O)OCC)cc1 [XPA-1284, ethyl 4-(4-cyclohexyl-2-vinylphenoxy)benzoate] | 20 to 40 | 0 to 20 | 40 to 60 | 70 to 80 | 20 to 40 | 70 to 80 | 20 to 40 | 0 to 20 | 60 to 70 | 0 to 20 | 60 to 70 | 20 to 40 | 
4 | COC1(c2ccc(Oc3ccc(C4CCCCC4)cc3)cc2)COC1 [XPA-0146, 3-(4-(4-cyclohexylphenoxy)phenyl)-3-methoxyoxetane] | 80 to 90 | 0 to 20 | 20 to 40 | 60 to 70 | 0 to 20 |  |  | 60 to 70 |  | 20 to 40 | 20 to 40 | 20 to 40 | 70 to 80
5 | O=Cc1ccc(Oc2ccc(C34CC5CC(CC(C5)C3)C4)cc2)cc1 [XPA-0028, 4-(4-(adamantan-1-yl)phenoxy)benzaldehyde] | 40 to 60 | 0 to 20 | 80 to 90 |  | 70 to 80 | 80 to 90 | 60 to 70 | 0 to 20 |  | 40 to 60 |  | 40 to 60 | 
6 | COC1(c2ccc(Oc3ccc(C45CC6CC(CC(C6)C4)C5)cc3)cc2)CN(C)C1 [XPA-0238, 3-(4-(4-((3r,5r,7r)-adamantan-1-yl)phenoxy)phenyl)-3-methoxy-1-methylazetidine] | 0 to 20 | 0 to 20 | 0 to 20 | 0 to 20 | 0 to 20 | 0 to 20 | 0 to 20 | 40 to 60 | 0 to 20 | 0 to 20 | 0 to 20 | 0 to 20 | 0 to 20
7 | CCOC(=O)c1ncc(Oc2ccc(C34CC5CC(CC(C5)C3)C4)cc2)cn1 [XPA-1303, ethyl 5-(4-((3r,5r,7r)-adamantan-1-yl)phenoxy)pyrimidine-2-carboxylate] |  | 80 to 90 |  |  |  |  |  |  |  |  |  | 80 to 90 | 
8 | CCOC(=O)c1ccc(Oc2ccc(C3CCCCC3)cc2C2CO2)cc1 (stereo not shown) [XPA-1290, ethyl 4-(4-cyclohexyl-2-(oxiran-2-yl)phenoxy)benzoate] |  | 80 to 90 |  |  | 70 to 80 |  |  | 0 to 20 |  |  |  |  | 
9 | c1ccc(COC2(c3ccc(Oc4ccc(C5CCCCC5)cc4)cc3)CNC2)cc1 [XPA-1317, 3-(benzyloxy)-3-(4-(4-cyclohexylphenoxy)phenyl)azetidine] | 0 to 20 | 0 to 20 | 0 to 20 | 0 to 20 | 0 to 20 | 0 to 20 | 0 to 20 | 0 to 20 | 0 to 20 | 0 to 20 | 0 to 20 | 0 to 20 | 0 to 20
10 | CCOC(=O)c1ccc(Oc2ccc(CCN(C)C)cc2)cc1 [XPA-0060, ethyl 4-(4-(2-(dimethylamino)ethyl)phenoxy)benzoate] | 80 to 90 |  | 80 to 90 |  | 40 to 60 | 20 to 40 | 40 to 60 | 20 to 40 | 60 to 70 |  | 40 to 60 | 40 to 60 | 70 to 80
11 | CN1CCC(c2ccc(Oc3ccc(C(=O)O)cc3)cc2)CC1 [XPA-0036, 4-(4-(1-methylpiperidin-4-yl)phenoxy)benzoic acid] |  |  |  |  | 80 to 90 |  |  |  |  |  |  |  | 
12 | OC1(c2ccc(Oc3ccc(C45CC6CC(CC(C6)C4)C5)cc3)cc2)COC1 [XPA-0140, 3-(4-(4-((3r,5r,7r)-adamantan-1-yl)phenoxy)phenyl)oxetan-3-ol] | 60 to 70 | 0 to 20 | 40 to 60 | 70 to 80 | 20 to 40 | 20 to 40 | 70 to 80 | 0 to 20 | 70 to 80 | 0 to 20 | 20 to 40 | 20 to 40 | 70 to 80
13 | CCOC(=O)c1ccc(Oc2ccc(C3CCOCC3)cc2)cc1 [XPA-0063, ethyl 4-(4-(tetrahydro-2H-pyran-4-yl)phenoxy)benzoate] |  | 80 to 90 |  |  | 80 to 90 |  |  |  |  |  |  | 80 to 90 | 
14 | OCc1ccc(Oc2ccc(C3CCCCC3)cc2)cc1 [XPA-0006, (4-(4-cyclohexylphenoxy)phenyl)methanol] |  |  | 70 to 80 |  | 60 to 70 |  |  | 40 to 60 |  | 80 to 90 |  | 60 to 70 | 80 to 90
